{
  "source": "PubChem BioAssay (NCI)",
  "assay_in_all_cases": "NCI-60 cell line screen, 48 h",
  "key": {"[1]": {"tested_on": "786-0 renal"}, "[2]": {"tested_on": "A498 renal"}, "[3]": {"tested_on": "A549 NSCLC"}, "[4]": {"tested_on": "ACHN renal"}, "[5]": {"tested_on": "CAKI-1 renal"}, "[6]": {"tested_on": "CCRF-CEM leukemia"}, "[7]": {"tested_on": "COLO 205 colon"}, "[8]": {"tested_on": "DLD-1 colon"}, "[9]": {"tested_on": "DMS 114 small cell lung"}, "[10]": {"tested_on": "DMS 273 small cell lung"}, "[11]": {"tested_on": "DU-145 prostate"}, "[12]": {"tested_on": "EKVX NSCLC"}, "[13]": {"tested_on": "HCC-2998 colon"}, "[14]": {"tested_on": "HCT-116 colon"}, "[15]": {"tested_on": "HCT-15 colon"}, "[16]": {"tested_on": "HL-60(TB) leukemia"}, "[17]": {"tested_on": "HOP-18 NSCLC"}, "[18]": {"tested_on": "HOP-62 NSCLC"}, "[19]": {"tested_on": "HOP-92 NSCLC"}, "[20]": {"tested_on": "HT29 colon"}, "[21]": {"tested_on": "IGROV1 ovarian"}, "[22]": {"tested_on": "K-562 leukemia"}, "[23]": {"tested_on": "KM12 colon"}, "[24]": {"tested_on": "KM20L2 colon"}, "[25]": {"tested_on": "LOX IMVI melanoma"}, "[26]": {"tested_on": "M14 melanoma"}, "[27]": {"tested_on": "M19-MEL melanoma"}, "[28]": {"tested_on": "MALME-3M melanoma"}, "[29]": {"tested_on": "MCF7 breast"}, "[30]": {"tested_on": "MDA-MB-231 breast"}, "[31]": {"tested_on": "MDA-MB-435"}, "[32]": {"tested_on": "MDA-N"}, "[33]": {"tested_on": "MOLT-4 leukemia"}, "[34]": {"tested_on": "NCI-H226 lung"}, "[35]": {"tested_on": "NCI-H23 lung"}, "[36]": {"tested_on": "NCI-H460 lung"}, "[37]": {"tested_on": "OVCAR-3 ovarian"}, "[38]": {"tested_on": "OVCAR-4 ovarian"}, "[39]": {"tested_on": "PC-3 prostate"}, "[40]": {"tested_on": "RPMI-8226 leukemia"}, "[41]": {"tested_on": "SF-295 CNS"}, "[42]": {"tested_on": "SF-539 CNS"}, "[43]": {"tested_on": "SK-MEL-2 melanoma"}, "[44]": {"tested_on": "SK-MEL-28 melanoma"}, "[45]": {"tested_on": "SK-MEL-5 melanoma"}, "[46]": {"tested_on": "SK-OV-3 ovarian"}, "[47]": {"tested_on": "SN12C renal"}, "[48]": {"tested_on": "SNB-19 CNS"}, "[49]": {"tested_on": "SNB-78 CNS"}, "[50]": {"tested_on": "SW-620 colon"}, "[51]": {"tested_on": "U251 CNS"}, "[52]": {"tested_on": "UACC-257 melanoma"}, "[53]": {"tested_on": "UACC-62 melanoma"}, "[54]": {"tested_on": "UO-31 renal"}},
  "note": "Several values for one entry are separate records, joined by “and”; a condition that tells them apart may be missing. Equal entries are not always repeated.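 48-hour exposure; five concentrations; linearly interpolated endpoints. The concentration for 50% growth inhibition is given as GI50. At the TGI there is no net growth.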",
  "data": [
    {"smiles": "COc1cc(C2C3=C(COC3=O)Oc3cc4c(cc32)OCO4)cc(OC)c1OC", "note": "(stereo not given)", "values": [
      {"measurement": "GI50", "setting": "[1]", "result": 45.6, "unit": "nM"},
      {"measurement": "GI50", "setting": "[2]", "result": 36.3, "unit": "nM"},
      {"measurement": "TGI", "setting": "[2]", "result": 18.6, "unit": "nM"},
      {"measurement": "GI50", "setting": "[3]", "result": "< 20.4", "unit": "nM"},
      {"measurement": "TGI", "setting": "[3]", "result": 14200, "unit": "nM"},
      {"measurement": "GI50", "setting": "[4]", "result": "< 15", "unit": "nM"},
      {"measurement": "TGI", "setting": "[4]", "result": 16400, "unit": "nM"},
      {"measurement": "TGI", "setting": "[5]", "result": 134, "unit": "nM"},
      {"measurement": "GI50", "setting": "[6]", "result": 22.1, "unit": "nM"},
      {"measurement": "TGI", "setting": "[6]", "result": "338 nM and 62.5 nM"},
      {"measurement": "GI50", "setting": "[7]", "result": "< 13.8", "unit": "nM"},
      {"measurement": "TGI", "setting": "[7]", "result": "92.9 nM and 38.5 nM"},
      {"measurement": "TGI", "setting": "[8]", "result": "> 100000", "unit": "nM"},
      {"measurement": "TGI", "setting": "[9]", "result": "38.4 nM and 13.1 nM"},
      {"measurement": "TGI", "setting": "[10]", "result": 12700, "unit": "nM"},
      {"measurement": "GI50", "setting": "[11]", "result": 22, "unit": "nM"},
      {"measurement": "TGI", "setting": "[11]", "result": "87.5 nM and 67.1 nM"},
      {"measurement": "GI50", "setting": "[12]", "result": 660, "unit": "nM"},
      {"measurement": "GI50", "setting": "[13]", "result": 21.4, "unit": "nM"},
      {"measurement": "TGI", "setting": "[13]", "result": 62, "unit": "nM"},
      {"measurement": "TGI", "setting": "[14]", "result": "235 nM and 1890 nM"},
      {"measurement": "GI50", "setting": "[15]", "result": 35.4, "unit": "nM"},
      {"measurement": "TGI", "setting": "[16]", "result": "50.2 nM and 41.3 nM"},
      {"measurement": "GI50", "setting": "[17]", "result": "> 100000", "unit": "nM"},
      {"measurement": "TGI", "setting": "[17]", "result": "> 100000", "unit": "nM"},
      {"measurement": "GI50", "setting": "[18]", "result": 20, "unit": "nM"},
      {"measurement": "TGI", "setting": "[18]", "result": 2140, "unit": "nM"},
      {"measurement": "GI50", "setting": "[19]", "result": "< 11.7", "unit": "nM"},
      {"measurement": "TGI", "setting": "[19]", "result": "88.2 nM and 90.1 nM"},
      {"measurement": "GI50", "setting": "[20]", "result": "10.5 nM and 26 nM"},
      {"measurement": "TGI", "setting": "[20]", "result": 44.4, "unit": "nM"},
      {"measurement": "GI50", "setting": "[21]", "result": 18.1, "unit": "nM"},
      {"measurement": "TGI", "setting": "[21]", "result": 13300, "unit": "nM"},
      {"measurement": "GI50", "setting": "[22]", "result": 32, "unit": "nM"},
      {"measurement": "TGI", "setting": "[22]", "result": 131, "unit": "nM"},
      {"measurement": "GI50", "setting": "[23]", "result": 10.1, "unit": "nM"},
      {"measurement": "TGI", "setting": "[23]", "result": 144, "unit": "nM"},
      {"measurement": "TGI", "setting": "[24]", "result": "42.1 nM and 28.3 nM"},
      {"measurement": "GI50", "setting": "[25]", "result": 9.94, "unit": "nM"},
      {"measurement": "TGI", "setting": "[25]", "result": "> 31600", "unit": "nM"},
      {"measurement": "GI50", "setting": "[26]", "result": "< 18.1", "unit": "nM"},
      {"measurement": "TGI", "setting": "[26]", "result": "> 31600", "unit": "nM"},
      {"measurement": "TGI", "setting": "[27]", "result": "> 100000", "unit": "nM"},
      {"measurement": "GI50", "setting": "[28]", "result": 36, "unit": "nM"},
      {"measurement": "GI50", "setting": "[29]", "result": 20.4, "unit": "nM"},
      {"measurement": "TGI", "setting": "[30]", "result": 694, "unit": "nM"},
      {"measurement": "GI50", "setting": "[31]", "result": 48.5, "unit": "nM"},
      {"measurement": "TGI", "setting": "[31]", "result": "80.4 nM and 291 nM"},
      {"measurement": "TGI", "setting": "[32]", "result": 53.2, "unit": "nM"},
      {"measurement": "TGI", "setting": "[33]", "result": 15100, "unit": "nM"},
      {"measurement": "TGI", "setting": "[34]", "result": 230, "unit": "nM"},
      {"measurement": "GI50", "setting": "[35]", "result": 28, "unit": "nM"},
      {"measurement": "GI50", "setting": "[36]", "result": "< 18.5", "unit": "nM"},
      {"measurement": "TGI", "setting": "[37]", "result": "70.9 nM and 88.3 nM"},
      {"measurement": "TGI", "setting": "[38]", "result": 28500, "unit": "nM"},
      {"measurement": "GI50", "setting": "[39]", "result": 20.3, "unit": "nM"},
      {"measurement": "TGI", "setting": "[39]", "result": 313, "unit": "nM"},
      {"measurement": "GI50", "setting": "[40]", "result": "< 17.6", "unit": "nM"},
      {"measurement": "TGI", "setting": "[40]", "result": "> 31600", "unit": "nM"},
      {"measurement": "TGI", "setting": "[41]", "result": 57.5, "unit": "nM"},
      {"measurement": "GI50", "setting": "[42]", "result": 14.9, "unit": "nM"},
      {"measurement": "TGI", "setting": "[42]", "result": "49.7 nM and 42.7 nM"},
      {"measurement": "GI50", "setting": "[43]", "result": 262, "unit": "nM"},
      {"measurement": "GI50", "setting": "[44]", "result": 11100, "unit": "nM"},
      {"measurement": "TGI", "setting": "[44]", "result": "> 31600", "unit": "nM"},
      {"measurement": "GI50", "setting": "[45]", "result": "< 16.2", "unit": "nM"},
      {"measurement": "TGI", "setting": "[45]", "result": "189 nM and 681 nM"},
      {"measurement": "GI50", "setting": "[46]", "result": 32, "unit": "nM"},
      {"measurement": "TGI", "setting": "[46]", "result": 13200, "unit": "nM"},
      {"measurement": "GI50", "setting": "[47]", "result": 37, "unit": "nM"},
      {"measurement": "TGI", "setting": "[47]", "result": 20900, "unit": "nM"},
      {"measurement": "GI50", "setting": "[48]", "result": 47.4, "unit": "nM"},
      {"measurement": "TGI", "setting": "[48]", "result": 17400, "unit": "nM"},
      {"measurement": "TGI", "setting": "[49]", "result": 50600, "unit": "nM"},
      {"measurement": "TGI", "setting": "[50]", "result": "> 31600", "unit": "nM"},
      {"measurement": "GI50", "setting": "[51]", "result": "< 21.3", "unit": "nM"},
      {"measurement": "TGI", "setting": "[52]", "result": 2860, "unit": "nM"},
      {"measurement": "TGI", "setting": "[53]", "result": "> 31600", "unit": "nM"},
      {"measurement": "GI50", "setting": "[54]", "result": "< 31.5", "unit": "nM"},
      {"measurement": "TGI", "setting": "[54]", "result": 16100, "unit": "nM"}
    ]}
  ]
}
